Test results as given in paper PMC6057649, “Development of NanoLuc-PEST expressing Leishmania mexicana as a new drug discovery tool for axenic- and intramacrophage-based assays” (PLoS Neglected Tropical Diseases, 2018).

Tested on: NanoLuc-PEST expressing L. mexicana axenic amastigotes
Assay: microbe, parasite or virus in culture
Type: cell-based
Conditions: for Relative Bioluminescence (%) / viability at 2 µM / viability at 10 µM: 72 hours, relative to DMSO only control, n = 4; for viability at 2 µM / viability at 10 µM: Leishmania mexicana, read-out: Relative Bioluminescence (%)

Row | Molecule | Relative Bioluminescence (%) (2 µM compound) | Relative Bioluminescence (%) (10 µM compound) | viability at 2 µM (2 µM compound) [%] | viability at 10 µM (10 µM compound) [%] | EC50 (hit compounds from the axenic amastigote screen, S3 Table, read-out: EC50, Axenic Amastigotes) [µM]
1 | Cc1ccc(S(=O)(=O)N2CCN(C(=O)c3cc(-c4ccccc4)n[nH]3)CC2)cc1 [MMV019742] | 69.14 | 102.67 |  |  | 
2 | NCC(=O)N1CCn2c(nc(-c3ccccc3)c2Nc2ccc3c(c2)OCO3)C1 [MMV011691] | 105.27 | 73.17 |  |  | 
3 | CCC(C)NC(=O)c1ccc(NC(=O)C2(c3ccccc3)CCCC2)cc1 (stereo not drawn) [MMV146306] | 97.77 | 40.43 |  |  | 
4 | COC(=O)C1=C(C)NC(C)=C(C(=O)OC(C)C)C1c1cccc2nonc12 (stereo not drawn) [MMV001493, Isradipine, reference compound] |  |  | 130 | 89.6 | 
5 | O=C1COCc2ccc(Br)cc2N1Cc1ccc(C(F)(F)F)cc1 [MMV032995] | 97.31 | 90.22 |  |  | 
6 | Cc1ccc(-c2cc(C(=O)Nc3cccnc3)c3cc(Br)ccc3n2)cc1 [MMV016838] | 44.83 | 13.69 |  |  | 
7 | CN(C)CCNC(=O)N1CCCN(c2ncnc3cc(-c4ccccc4)sc23)CC1 [MMV024195] | 89.61 | 76.61 |  |  | 
8 | CCCCc1ccc(C(=O)Nc2nccc3ccccc23)nc1 [MMV687254] | 63.72 | -0.07 |  |  | 
9 | O=[N+]([O-])c1cn2c(n1)OC[C@@H](OCc1ccc(OC(F)(F)F)cc1)C2 [MMV688755] | 26.38 | 0.45 |  |  | 
10 | CCOc1ccc(OCC(=O)Nc2cc(C)cc(C)c2)cc1 [MMV676470] | 87.35 | 79.72 |  |  | 
11 | N#Cc1nc(-c2ccccc2F)oc1NCCc1ccccc1 [MMV676384] | 51.03 | 59.90 |  |  | 
12 | Levofloxacin (-)-ofloxacin [MMV687798, reference compound] | 83.03 | 74.50 |  |  | 
13 | Nc1ncnc2c1ncn2C[C@@H](O)[C@@H](O)C(=O)O [MMV689255, D-Eritadenine] | 68.65 | 73.04 |  |  | 
14 | COC(=O)c1ccc(F)cc1NS(=O)(=O)c1cccc(-c2cnn(Cc3ccccc3)c2)c1 [MMV688350] | 101.75 | 91.24 |  |  | 
15 | FC(F)(F)c1ccc(N(c2cccnc2)C2CCN(c3ccc(C(F)(F)F)cn3)CC2)cc1 [MMV689243] | 34.53 | 8.50 |  |  | 
16 | COc1ccc(-c2cnc3cnc(-c4cccc(OC(C)C)c4)cn23)cc1 [MMV688270] | 58.63 | 51.88 |  |  | 
17 | Cc1ccccc1C(=O)N1NC(=Nc2ccccc2)SC1(C)C [MMV688771] | 70.08 | 37.89 |  |  | 
18 | CC(=O)N1CCN(c2ccc(Oc3ccc(Cl)cc3O)cc2)CC1 [MMV688330] | 97.96 | 79.07 |  |  | 
19 | CCOC(=O)c1cc(-c2csc(Nc3c(C)cc(C)cc3C)n2)on1 [MMV676461] | 79.84 | 54.88 |  |  | 
20 | Cc1cc(C)nc(-n2nc(C)cc2Nc2ccccc2)n1 [MMV062221] | 64.16 | 7.64 |  |  | 
21 | Brc1c(-c2ccc3c(c2)OCO3)nc2ncccn12 [MMV676377] | 78.14 | 74.59 |  |  | 
22 | COc1ccc(CN2CCOc3ccc(C(C)(O)CN(C)C)cc3C2)cc1C (stereo not drawn) [MMV008439] | 83.20 | 126.81 |  |  | 

Row | Molecule | Relative Bioluminescence (%) (2 µM compound) | Relative Bioluminescence (%) (10 µM compound) | viability at 2 µM (2 µM compound) [%] | viability at 10 µM (10 µM compound) [%] | EC50 (hit compounds from the axenic amastigote screen, S3 Table, read-out: EC50, Axenic Amastigotes) [µM]
23 | Cc1nn(C(=O)Nc2cccc(C(F)(F)F)c2)c(C)c1Sc1ncccn1 [MMV688552] | 71.00 | 47.85 |  |  | 
24 | COc1ccc(-c2cc(NC(=O)c3ccc(F)cc3Cl)ccc2OC)cc1 [MMV676526] | 103.78 | 46.48 |  |  | 
25 | c1ccc(C[C@@H]2CN(c3nccc(Oc4ccc(-n5ccnc5)cc4)n3)CCN2)cc1 [MMV687749] | 66.01 | 56.67 |  |  | 
26 | CNC(=O)c1cc(S(=O)(=O)N2CCN(c3ccccn3)CC2)cs1 [MMV020136] | 108.03 | 122.06 |  |  | 
27 | COc1ccc(C2=NN(C3CCCCCC3)C(=O)[C@@H]3CC=CC[C@H]23)cc1OCCCCOc1ccc(-c2nn[nH]n2)cc1 [MMV690027] | 96.72 | 33.47 |  |  | 
28 | FC(F)(F)c1cnc(Sc2nnc(-c3ccncc3)o2)c(Cl)c1 [MMV011765] | 84.80 | 45.24 |  |  | 
29 | COc1nc2ccc(Br)cc2cc1[C@@H](c1ccccc1)[C@@](O)(CCN(C)C)c1cccc2ccccc12 [MMV689758, Bedaquiline, reference compound] |  |  | 94.9 | 45.4 | 
30 | CNC(=O)C1Cc2c([nH]c3cc(Cl)ccc23)C2(CCN(CCc3ccccc3)CC2)N1 (stereo not drawn) [MMV031011] | 110.57 | 84.55 |  |  | 
31 | FC(F)(F)c1cc(NCCc2ccccc2)nc(-c2ccccn2)n1 [MMV659010] | 95.95 | 88.01 |  |  | 
32 | Cc1nnc(NCc2cccc(Cl)c2)c2ccccc12 [MMV676555] | 104.08 | 90.53 |  |  | 
33 | CNC(=O)C1Cc2ccccc2N1C(=O)Cc1ccc(F)cc1 (stereo not drawn) [MMV188296] | 81.46 | 106.72 |  |  | 
34 | Brc1cncc(-c2cc(NCCCn3ccnc3)nc(-c3ccccc3)n2)c1 [MMV661713] | 76.01 | 83.31 |  |  | 
35 | CCOc1ccc2cc(-c3nn(CC4CCN(C)CC4)c4ncnc(N)c34)ccc2c1 [MMV688854] | 92.07 | 66.13 |  |  | 
36 | CC(=O)N1CCc2cc3nc(C)cc(C)c3cc21 [MMV054312] | 120.77 | 116.16 |  |  | 
37 | O=C(NCCc1ccn(-c2ccccc2)n1)C1CCCCC1 [MMV688795] | 79.12 | 86.70 |  |  | 
38 | [H]/N=C(/N)N[C@H]1[C@H](O)[C@@H](O)[C@H](O[C@@H]2O[C@@H](C)[C@](O)(C=O)[C@H]2O[C@@H]2O[C@@H](CO)[C@H](O)[C@@H](O)[C@@H]2NC)[C@@H](N/C(N)=N\[H])[C@@H]1O [MMV688994, Streptomycin, reference compound] |  |  | 94 | 84.3 | 
39 | COc1ccc(Cn2cnc3c(-c4ccco4)nc(Cl)nc32)cc1 [MMV687170] | 107.56 | 104.36 |  |  | 
40 | COc1ccc(Nc2ccccc2NC(=O)c2ccc(=O)[nH]c2)cc1 [MMV676554] | 97.83 | 103.74 |  |  | 
41 | CCOC(=O)c1c(NC(=O)c2c(F)c(F)c(F)c(F)c2F)sc(C(N)=O)c1C [MMV153413] | 4.50 | 0.97 |  |  | 0.52
42 | NC(=O)c1cc(-c2ccsc2)ccc1OCCOc1ccccc1 [MMV687138] | 56.61 | 48.25 |  |  | 
43 | CS(=O)(=O)c1ccc(C(=O)N(CC2CCCO2)c2nc3ccccc3s2)cc1[N+](=O)[O-] (stereo not drawn) [MMV688761] | 39.52 | -1.44 |  |  | 
